Key:
HCV NS3-NS4A protease = target: T1, HCV NS3-NS4A protease (Hepatitis C virus genotype 1a, UniProt P27958); assay: HCV Ki Assay (enzyme, Example 5); assay type: biochemical; conditions: Ki values, tested according to Example 5 (enzyme); 5AB substrate, tNS3 with KK4A
T1 construct: The buffer, KK4A, DTT, and tNS3 were combined
Description: HPLC Microbore Method for Separation of 5AB Substrate and Products
NH2-Glu-Asp-Val-Val-(alpha)Abu-Cys-Ser-Met-Ser-Tyr-COOH
A stock solution of 20 mM 5AB (or concentration of your choice) was made in DMSO w/0.2M DTT. This was stored in aliquots at −20 C.
Buffer: 50 mM HEPES, pH 7.8; 20% glycerol; 100 mM NaCl
Total assay volume was 100 μL
The buffer, KK4A, DTT, and tNS3 were combined; distributed 78 μL each into wells of 96 well plate. This was incubated at 30 C for ˜5-10 min.
2.5 μL of appropriate concentration of test compound was dissolved in DMSO (DMSO only for control) and added to each well. This was incubated at room temperature for 15 min.
Initiated reaction by addition of 20 μL of 250 μM 5AB substrate (25 μM concentration is equivalent or slightly lower than the Km for 5AB).
Incubated for 20 min at 30 C.
Terminated reaction by addition of 25 μL of 10% TFA
Transferred 120 μL aliquots to HPLC vials
Separated SMSY product from substrate and KK4A by the following method:
Microbore Separation Method:
Instrumentation: Agilent 1100
Column thermostated chamber G1316A
Diode array detector G1315A
Solvent A=HPLC grade water+0.1% TFA
Solvent B=HPLC grade acetonitrile+0.1% TFA
Stop time: 17 min Post-run time: 10 min.

[1] = test system: Cells containing hepatitis C virus (HCV) replicon; assay: HCV Replicon Cell Assay (Example 4); assay type: cell-based; conditions: 48 h, tested according to Example 4 (cell), 50% inhibition of HCV RNA level, 48-hour incubation
Description: HCV Replicon Cell Assay Protocol
Cells containing hepatitis C virus (HCV) replicon were maintained in DMEM containing 10% fetal bovine serum (FBS), 0.25 mg per ml of G418, with appropriate supplements (media A).
On day 1, replicon cell monolayer was treated with a trypsin:EDTA mixture, removed, and then media A was diluted into a final concentration of 100,000 cells per ml wit. 10,000 cells in 100 ul were plated into each well of a 96-well tissue culture plate, and cultured overnight in a tissue culture incubator at 37° C.
On day 2, compounds (in 100% DMSO) were serially diluted into DMEM containing 2% FBS, 0.5% DMSO, with appropriate supplements (media B). The final concentration of DMSO was maintained at 0.5% throughout the dilution series.
Media on the replicon cell monolayer was removed, and then media B containing various concentrations of compounds was added. Media B without any compound was added to other wells as no compound controls.
Cells were incubated with compound or 0.5% DMSO in media B for 48 hours in a tissue culture incubator at 37° C. At the end of the 48-hour incubation, the media was removed, and the replicon cell monolayer was washed once with PBS and stored at −80° C. prior to RNA extraction.
Culture plates with treated replicon cell monolayers were thawed, and a fixed amount of another RNA virus, such as Bovine Viral Diarrhea Virus (BVDV) was added to cells in each well, RNA extraction reagents (such as reagents from RNeasy kits) were added to the cells immediately to avoid degradation of RNA. Total RNA was extracted according the instruction of manufacturer with modification to improve extraction efficiency and consistency. Finally, total cellular RNA, including HCV replicon RNA, was eluted and stored at −80° C. until further processing.
A Taqman real-time RT-PCR quantification assay was set up with two sets of specific primers and probe. One was for HCV and the other was for BVDV. Total RNA extractants from treated HCV replicon cells was added to the PCR reactions for quantification of both HCV and BVDV RNA in the same PCR well. Experimental failure was flagged and rejected based on the level of BVDV RNA in each well. The level of HCV RNA in each well was calculated according to a standard curve run in the same PCR plate. The percentage of inhibition or decrease of HCV RNA level due to compound treatment was calculated using the DMSO or no compound control as 0% of inhibition. The IC50 (concentration at which 50% inhibition of HCV RNA level is observed) was calculated from the titration curve of any given compound.

T1 sequence (P27958 1658-1711): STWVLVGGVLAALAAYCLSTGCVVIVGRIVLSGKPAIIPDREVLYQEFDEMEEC
T1 sequence (P27958 1027-1208): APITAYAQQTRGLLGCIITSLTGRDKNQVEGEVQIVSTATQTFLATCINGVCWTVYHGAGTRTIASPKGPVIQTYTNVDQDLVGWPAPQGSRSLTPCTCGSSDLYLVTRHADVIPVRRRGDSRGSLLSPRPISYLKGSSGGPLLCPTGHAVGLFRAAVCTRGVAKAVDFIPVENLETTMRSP

| SMILES | Ki (HCV NS3-NS4A protease) [nM] | IC50 [1] [nM] |
| --- | --- | --- |
| CCC[C@H](NC(=O)[C@@H]1C[C@@H](Oc2cccc(OC(F)(F)F)c2)CN1C(=O)[C@@H](NC(=O)[C@@H](NC(=O)c1cnccn1)C1CCCCC1)C(C)(C)C)C(=O)C(=O)NC1CC1 [Compound 16] | 100 to 300 | 500 to 1000 |
| CCC[C@H](NC(=O)[C@@H]1C[C@@H](Oc2cccc(F)c2)CN1C(=O)[C@@H](NC(=O)[C@@H](NC(=O)c1cnccn1)C1CCCCC1)C(C)(C)C)C(=O)C(=O)NC1CC1 [Compound 18] | 100 to 300 | < 500 |
| CCC[C@H](NC(=O)[C@@H]1C[C@@H](Oc2ccc(-c3ccccc3)cc2)CN1C(=O)[C@@H](NC(=O)[C@@H](NC(=O)c1cnccn1)C1CCCCC1)C(C)(C)C)C(=O)C(=O)NC1CC1 [Compound 19] | < 100 | < 500 |
| CCC[C@H](NC(=O)[C@@H]1C[C@@H](Oc2ccccc2Cl)CN1C(=O)[C@@H](NC(=O)[C@@H](NC(=O)c1cnccn1)C1CCCCC1)C(C)(C)C)C(=O)C(=O)NC1CC1 [Compound 20] | < 100 | 500 to 1000 |
| CCC[C@H](NC(=O)[C@@H]1C[C@@H](Oc2cccc(C(F)(F)F)c2)CN1C(=O)[C@@H](NC(=O)[C@@H](NC(=O)c1cnccn1)C1CCCCC1)C(C)(C)C)C(=O)C(=O)NC1CC1 [Compound 22] | 100 to 300 | < 500 |
| CCC[C@H](NC(=O)[C@@H]1C[C@@H](Oc2cc(OC)cc(OC)c2)CN1C(=O)[C@@H](NC(=O)[C@@H](NC(=O)c1cnccn1)C1CCCCC1)C(C)(C)C)C(=O)C(=O)NC1CC1 [Compound 24] | < 100 | < 500 |
| CCC[C@H](NC(=O)[C@@H]1C[C@@H](Oc2ccc([N+](=O)[O-])cn2)CN1C(=O)[C@@H](NC(=O)[C@@H](NC(=O)c1cnccn1)C1CCCCC1)C(C)(C)C)C(=O)C(=O)NC1CC1 [Compound 26] | 100 to 300 | < 500 |
| CCCC(NC(=O)[C@@H]1C[C@@H](Oc2ccccc2)CN1C(=O)[C@@H](NC(=O)[C@@H](NC(=O)c1cnccn1)C1CCCCC1)C(C)(C)C)C(=O)C(=O)NC1CC1 (stereo partly shown) [Compound 34] | 100 to 300 | < 500 |
| CCC[C@H](NC(=O)[C@@H]1C[C@@H](Oc2ccccc2)CN1C(=O)[C@@H](NC(=O)[C@@H](NC(=O)c1cnccn1)C1CCCCC1)C(C)(C)C)C(=O)C(=O)NC1CC1 [Compound 35] | < 100 | < 500 |
| CCC[C@H](NC(=O)[C@@H]1C[C@@H](Oc2cccc3ccccc23)CN1C(=O)[C@@H](NC(=O)[C@@H](NC(=O)c1cnccn1)C1CCCCC1)C(C)(C)C)C(=O)C(=O)NC1CC1 [Compound 36] | < 100 | < 500 |
| CCC[C@H](NC(=O)[C@@H]1C[C@@H](Oc2ccc(OC)c3ccccc23)CN1C(=O)[C@@H](NC(=O)[C@@H](NC(=O)c1cnccn1)C1CCCCC1)C(C)(C)C)C(=O)C(=O)NC1CC1 [Compound 38] | < 100 | < 500 |
| CCC[C@H](NC(=O)[C@@H]1C[C@@H](Oc2ccnc3ccccc23)CN1C(=O)[C@@H](NC(=O)[C@@H](NC(=O)c1cnccn1)C1CCCCC1)C(C)(C)C)C(=O)C(=O)NC1CC1 [Compound 39] | < 100 | < 500 |
| CCC[C@H](NC(=O)[C@@H]1C[C@@H](Oc2ccc(Cl)c3ccccc23)CN1C(=O)[C@@H](NC(=O)[C@@H](NC(=O)c1cnccn1)C1CCCCC1)C(C)(C)C)C(=O)C(=O)NC1CC1 [Compound 40] | < 100 | < 500 |
| CCC[C@H](NC(=O)[C@@H]1C[C@@H](Oc2ccnc3cc(OC)ccc23)CN1C(=O)[C@@H](NC(=O)[C@@H](NC(=O)c1cnccn1)C1CCCCC1)C(C)(C)C)C(=O)C(=O)NC1CC1 [Compound 41] | < 100 | > 1000 |
| CCC[C@H](NC(=O)[C@@H]1C[C@@H](Oc2ncnc3ccccc23)CN1C(=O)[C@@H](NC(=O)[C@@H](NC(=O)c1cnccn1)C1CCCCC1)C(C)(C)C)C(=O)C(=O)NC1CC1 [Compound 42] | < 100 | < 500 |
| CCC[C@H](NC(=O)[C@@H]1C[C@@H](Oc2ccc(F)cc2)CN1C(=O)[C@@H](NC(=O)[C@@H](NC(=O)c1cnccn1)C1CCCCC1)C(C)(C)C)C(=O)C(=O)NC1CC1 [Compound 43] | < 100 | < 500 |
| CCC[C@H](NC(=O)[C@@H]1C[C@@H](Oc2ccc([N+](=O)[O-])cc2)CN1C(=O)[C@@H](NC(=O)[C@@H](NC(=O)c1cnccn1)C1CCCCC1)C(C)(C)C)C(=O)C(=O)NC1CC1 [Compound 44] | < 100 | < 500 |
| CCC[C@H](NC(=O)[C@@H]1C[C@@H](Oc2cccc(C(=O)OC)c2)CN1C(=O)[C@@H](NC(=O)[C@@H](NC(=O)c1cnccn1)C1CCCCC1)C(C)(C)C)C(=O)C(=O)NC1CC1 [Compound 45] | < 100 | < 500 |
| CCC[C@H](NC(=O)[C@@H]1C[C@@H](Oc2cccc(C(=O)NC)c2)CN1C(=O)[C@@H](NC(=O)[C@@H](NC(=O)c1cnccn1)C1CCCCC1)C(C)(C)C)C(=O)C(=O)NC1CC1 [Compound 46] | < 100 | < 500 |
| CCC[C@H](NC(=O)[C@@H]1C[C@@H](Oc2cccc(S(=O)(=O)NC)c2)CN1C(=O)[C@@H](NC(=O)[C@@H](NC(=O)c1cnccn1)C1CCCCC1)C(C)(C)C)C(=O)C(=O)NC1CC1 [Compound 47] | > 300 | < 500 |
| CCC[C@H](NC(=O)[C@@H]1C[C@@H](Oc2ccc(S(=O)(=O)NC)cc2)CN1C(=O)[C@@H](NC(=O)[C@@H](NC(=O)c1cnccn1)C1CCCCC1)C(C)(C)C)C(=O)C(=O)NC1CC1 [Compound 48] | 100 to 300 | < 500 |
| CCC[C@H](NC(=O)[C@@H]1C[C@@H](Oc2cccc(NC(C)=O)c2)CN1C(=O)[C@@H](NC(=O)[C@@H](NC(=O)c1cnccn1)C1CCCCC1)C(C)(C)C)C(=O)C(=O)NC1CC1 [Compound 49] | < 100 | > 1000 |
| CCC[C@H](NC(=O)[C@@H]1C[C@@H](Oc2ccncn2)CN1C(=O)[C@@H](NC(=O)[C@@H](NC(=O)c1cnccn1)C1CCCCC1)C(C)(C)C)C(=O)C(=O)NC1CC1 [Compound 50] | 100 to 300 | < 500 |
| CCC[C@H](NC(=O)[C@@H]1C[C@@H](Oc2ccc(NC(C)=O)cc2)CN1C(=O)[C@@H](NC(=O)[C@@H](NC(=O)c1cnccn1)C1CCCCC1)C(C)(C)C)C(=O)C(=O)NC1CC1 [Compound 51] | < 100 | > 1000 |
| CCC[C@H](NC(=O)[C@@H]1C[C@@H](Oc2ccc(Cl)c(Cl)c2)CN1C(=O)[C@@H](NC(=O)[C@@H](NC(=O)c1cnccn1)C1CCCCC1)C(C)(C)C)C(=O)C(=O)NC1CC1 [Compound 53] | < 100 | < 500 |
| CCC[C@H](NC(=O)[C@@H]1C[C@@H](Oc2ccc(F)c(F)c2)CN1C(=O)[C@@H](NC(=O)[C@@H](NC(=O)c1cnccn1)C1CCCCC1)C(C)(C)C)C(=O)C(=O)NC1CC1 [Compound 54] | < 100 | < 500 |
| CCC[C@H](NC(=O)[C@@H]1C[C@@H](Oc2cc(F)cc(F)c2)CN1C(=O)[C@@H](NC(=O)[C@@H](NC(=O)c1cnccn1)C1CCCCC1)C(C)(C)C)C(=O)C(=O)NC1CC1 [Compound 55] | 100 to 300 | < 500 |
| CCC[C@H](NC(=O)[C@@H]1C[C@@H](Oc2ccc(Cl)cc2)CN1C(=O)[C@@H](NC(=O)[C@@H](NC(=O)c1cnccn1)C1CCCCC1)C(C)(C)C)C(=O)C(=O)NC1CC1 [Compound 56] | < 100 | < 500 |
| CCC[C@H](NC(=O)[C@@H]1C[C@@H](Oc2ccccn2)CN1C(=O)[C@@H](NC(=O)[C@@H](NC(=O)c1cnccn1)C1CCCCC1)C(C)(C)C)C(=O)C(=O)NC1CC1 [Compound 58] | < 100 | < 500 |
